Experimental data: PubChem BioAssay (NCI)
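Dose response: 5 concentrations. Exposure: 48 h. Format: 96-well plates. Endpoint: linear interpolation; highest concentration if not reached. The concentration for 50% growth inhibition is given as GI50. TGI is the concentration that stops growth completely.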

Columns and labels:
Experiment in all cases: DTP human tumour cell line panel, 48 h
SNB-75 CNS = tested on: SNB-75 CNS
HOP-92 NSCLC = tested on: HOP-92 NSCLC
HL-60(TB) leukemia = tested on: HL-60(TB) leukemia
MCF7 breast = tested on: MCF7 breast
A498 renal = tested on: A498 renal
SK-MEL-2 melanoma = tested on: SK-MEL-2 melanoma
CAKI-1 renal = tested on: CAKI-1 renal
MOLT-4 leukemia = tested on: MOLT-4 leukemia
SF-268 CNS = tested on: SF-268 CNS
SK-OV-3 ovarian = tested on: SK-OV-3 ovarian
TK-10 renal = tested on: TK-10 renal
UACC-62 melanoma = tested on: UACC-62 melanoma
ACHN renal = tested on: ACHN renal
DU-145 prostate = tested on: DU-145 prostate
OVCAR-5 ovarian = tested on: OVCAR-5 ovarian
LOX IMVI melanoma = tested on: LOX IMVI melanoma
786-0 renal = tested on: 786-0 renal
NCI-H460 lung = tested on: NCI-H460 lung
U251 CNS = tested on: U251 CNS
SN12C renal = tested on: SN12C renal
SF-295 CNS = tested on: SF-295 CNS
NCI-H23 lung = tested on: NCI-H23 lung
PC-3 prostate = tested on: PC-3 prostate
OVCAR-4 ovarian = tested on: OVCAR-4 ovarian
HCT-116 colon = tested on: HCT-116 colon
RXF 393 renal = tested on: RXF 393 renal
M14 melanoma = tested on: M14 melanoma
NCI-H522 lung = tested on: NCI-H522 lung
SF-539 CNS = tested on: SF-539 CNS
OVCAR-3 ovarian = tested on: OVCAR-3 ovarian
A549 NSCLC = tested on: A549 NSCLC
BT-549 breast = tested on: BT-549 breast
HS 578T breast = tested on: HS 578T breast
EKVX NSCLC = tested on: EKVX NSCLC
SK-MEL-5 melanoma = tested on: SK-MEL-5 melanoma
HCT-15 colon = tested on: HCT-15 colon
COLO 205 colon = tested on: COLO 205 colon
SNB-19 CNS = tested on: SNB-19 CNS
HOP-62 NSCLC = tested on: HOP-62 NSCLC
MDA-MB-231 breast = tested on: MDA-MB-231 breast
RPMI-8226 leukemia = tested on: RPMI-8226 leukemia
T-47D breast = tested on: T-47D breast
NCI-H226 lung = tested on: NCI-H226 lung
IGROV1 ovarian = tested on: IGROV1 ovarian
OVCAR-8 ovarian = tested on: OVCAR-8 ovarian
HCC-2998 colon = tested on: HCC-2998 colon
UO-31 renal = tested on: UO-31 renal
SK-MEL-28 melanoma = tested on: SK-MEL-28 melanoma
MDA-MB-468 breast = tested on: MDA-MB-468 breast
UACC-257 melanoma = tested on: UACC-257 melanoma
SW-620 colon = tested on: SW-620 colon
MALME-3M melanoma = tested on: MALME-3M melanoma
NCI/ADR-RES ovarian = tested on: NCI/ADR-RES ovarian
MDA-MB-435 = tested on: MDA-MB-435

SMILES: COc1cc2oc(-c3cccc(C(=O)Nc4cccc([N+](=O)[O-])c4)c3)cc(=O)c2c(OC)c1OC
- GI50 (SNB-75 CNS): 1.99 µM
- TGI (SNB-75 CNS): 6.08 µM
- GI50 (HOP-92 NSCLC): 5.46 µM
- TGI (HOP-92 NSCLC): 42.4 µM
- GI50 (HL-60(TB) leukemia): > 100 µM
- TGI (HL-60(TB) leukemia): > 100 µM
- GI50 (MCF7 breast): 3.8 µM
- TGI (MCF7 breast): > 100 µM
- GI50 (A498 renal): 34.9 µM
- TGI (A498 renal): > 100 µM
- GI50 (SK-MEL-2 melanoma): 11.9 µM
- TGI (SK-MEL-2 melanoma): > 100 µM
- GI50 (CAKI-1 renal): 2.86 µM
- TGI (CAKI-1 renal): 10.9 µM
- GI50 (MOLT-4 leukemia): > 100 µM
- TGI (MOLT-4 leukemia): > 100 µM
- GI50 (SF-268 CNS): 3.49 µM
- TGI (SF-268 CNS): > 100 µM
- GI50 (SK-OV-3 ovarian): 4.26 µM
- TGI (SK-OV-3 ovarian): > 100 µM
- GI50 (TK-10 renal): 11.5 µM
- TGI (TK-10 renal): 60.8 µM
- GI50 (UACC-62 melanoma): 4.92 µM
- TGI (UACC-62 melanoma): > 100 µM
- GI50 (ACHN renal): 3.22 µM
- TGI (ACHN renal): > 100 µM
- GI50 (DU-145 prostate): 4.77 µM
- TGI (DU-145 prostate): > 100 µM
- GI50 (OVCAR-5 ovarian): > 100 µM
- TGI (OVCAR-5 ovarian): > 100 µM
- GI50 (LOX IMVI melanoma): 5.73 µM
- TGI (LOX IMVI melanoma): > 100 µM
- GI50 (786-0 renal): 3.68 µM
- TGI (786-0 renal): 21.7 µM
- GI50 (NCI-H460 lung): 3.87 µM
- TGI (NCI-H460 lung): > 100 µM
- GI50 (U251 CNS): 6.69 µM
- TGI (U251 CNS): > 100 µM
- GI50 (SN12C renal): 3.36 µM
- TGI (SN12C renal): > 100 µM
- GI50 (SF-295 CNS): 2.51 µM
- TGI (SF-295 CNS): 6.9 µM
- GI50 (NCI-H23 lung): 22.5 µM
- TGI (NCI-H23 lung): > 100 µM
- GI50 (PC-3 prostate): 3.55 µM
- TGI (PC-3 prostate): > 100 µM
- GI50 (OVCAR-4 ovarian): 2.72 µM
- TGI (OVCAR-4 ovarian): 9.09 µM
- GI50 (HCT-116 colon): 3.57 µM
- TGI (HCT-116 colon): > 100 µM
- GI50 (RXF 393 renal): 2.28 µM
- TGI (RXF 393 renal): 18.8 µM
- GI50 (M14 melanoma): > 100 µM
- TGI (M14 melanoma): > 100 µM
- GI50 (NCI-H522 lung): 3.14 µM
- TGI (NCI-H522 lung): 23.2 µM
- GI50 (SF-539 CNS): 4.4 µM
- TGI (SF-539 CNS): 41.7 µM
- GI50 (OVCAR-3 ovarian): 4.44 µM
- TGI (OVCAR-3 ovarian): > 100 µM
- GI50 (A549 NSCLC): 4.94 µM
- TGI (A549 NSCLC): > 100 µM
- GI50 (BT-549 breast): 2.46 µM
- TGI (BT-549 breast): 8.09 µM
- GI50 (HS 578T breast): 2.51 µM
- TGI (HS 578T breast): 7.23 µM
- GI50 (EKVX NSCLC): 7.32 µM
- TGI (EKVX NSCLC): > 100 µM
- GI50 (SK-MEL-5 melanoma): 5.17 µM
- TGI (SK-MEL-5 melanoma): > 100 µM
- GI50 (HCT-15 colon): 5.25 µM
- TGI (HCT-15 colon): > 100 µM
- GI50 (COLO 205 colon): > 100 µM
- TGI (COLO 205 colon): > 100 µM
- GI50 (SNB-19 CNS): 6.91 µM
- TGI (SNB-19 CNS): 68.9 µM
- GI50 (HOP-62 NSCLC): 6.31 µM
- TGI (HOP-62 NSCLC): 33.6 µM
- GI50 (MDA-MB-231 breast): 4.26 µM
- TGI (MDA-MB-231 breast): > 100 µM
- GI50 (RPMI-8226 leukemia): 2.88 µM
- TGI (RPMI-8226 leukemia): > 100 µM
- GI50 (T-47D breast): 3.56 µM
- TGI (T-47D breast): > 100 µM
- GI50 (NCI-H226 lung): 2.29 µM
- TGI (NCI-H226 lung): 7.38 µM
- GI50 (IGROV1 ovarian): 7.99 µM
- TGI (IGROV1 ovarian): > 100 µM

SMILES: O=C(CCl)Nc1ccc(C(=O)/C=C/c2cc3ccccc3nc2Cl)cc1
- GI50 (SNB-75 CNS): 1.29 µM
- TGI (SNB-75 CNS): 2.66 µM
- GI50 (OVCAR-8 ovarian): 1.89 µM
- TGI (OVCAR-8 ovarian): 4.08 µM
- GI50 (HOP-92 NSCLC): 1.89 µM
- TGI (HOP-92 NSCLC): 3.83 µM
- GI50 (HCC-2998 colon): 1.58 µM
- TGI (HCC-2998 colon): 2.96 µM
- GI50 (MCF7 breast): 0.294 µM
- TGI (MCF7 breast): 1.43 µM
- GI50 (A498 renal): 12.7 µM
- TGI (A498 renal): 25.6 µM
- GI50 (SK-MEL-2 melanoma): 2.14 µM
- TGI (SK-MEL-2 melanoma): 5.67 µM
- GI50 (CAKI-1 renal): 1.61 µM
- TGI (CAKI-1 renal): 2.98 µM
- GI50 (SK-OV-3 ovarian): 3.63 µM
- TGI (SK-OV-3 ovarian): 12.1 µM
- GI50 (TK-10 renal): 1.95 µM
- TGI (TK-10 renal): 4.58 µM
- GI50 (UACC-62 melanoma): 1.53 µM
- TGI (UACC-62 melanoma): 2.9 µM
- GI50 (ACHN renal): 1.72 µM
- TGI (ACHN renal): 3.09 µM
- GI50 (DU-145 prostate): 1.76 µM
- TGI (DU-145 prostate): 3.17 µM
- GI50 (UO-31 renal): 1.41 µM
- TGI (UO-31 renal): 2.71 µM
- GI50 (OVCAR-5 ovarian): 1.8 µM
- TGI (OVCAR-5 ovarian): 3.26 µM
- GI50 (LOX IMVI melanoma): 0.221 µM
- TGI (LOX IMVI melanoma): 0.626 µM
- GI50 (786-0 renal): 1.71 µM
- TGI (786-0 renal): 3.13 µM
- GI50 (NCI-H460 lung): 1.72 µM
- TGI (NCI-H460 lung): 3.33 µM
- GI50 (SK-MEL-28 melanoma): 1.88 µM
- TGI (SK-MEL-28 melanoma): 3.66 µM
- GI50 (U251 CNS): 1.11 µM
- TGI (U251 CNS): 2.35 µM
- GI50 (MDA-MB-468 breast): 1.47 µM
- TGI (MDA-MB-468 breast): 2.92 µM
- GI50 (UACC-257 melanoma): 1.62 µM
- TGI (UACC-257 melanoma): 3.23 µM
- GI50 (SN12C renal): 1.54 µM
- TGI (SN12C renal): 2.89 µM
- GI50 (SF-295 CNS): 1.62 µM
- TGI (SF-295 CNS): 3.07 µM
- GI50 (NCI-H23 lung): 1.51 µM
- TGI (NCI-H23 lung): 2.89 µM
- GI50 (SW-620 colon): 0.523 µM
- TGI (SW-620 colon): 1.83 µM
- GI50 (PC-3 prostate): 1.73 µM
- TGI (PC-3 prostate): 3.47 µM
- GI50 (HCT-116 colon): 0.175 µM
- TGI (HCT-116 colon): 0.319 µM
- GI50 (RXF 393 renal): 1.56 µM
- TGI (RXF 393 renal): 2.98 µM
- GI50 (M14 melanoma): 1.57 µM
- TGI (M14 melanoma): 3.04 µM
- GI50 (NCI-H522 lung): 1.55 µM
- TGI (NCI-H522 lung): 3.02 µM
- GI50 (SF-539 CNS): 1.67 µM
- TGI (SF-539 CNS): 3.03 µM
- GI50 (A549 NSCLC): 1.78 µM
- TGI (A549 NSCLC): 3.48 µM
- GI50 (BT-549 breast): 1.21 µM
- TGI (BT-549 breast): 2.48 µM
- GI50 (HS 578T breast): 1.98 µM
- TGI (HS 578T breast): 5.22 µM
- GI50 (EKVX NSCLC): 1.82 µM
- TGI (EKVX NSCLC): 3.52 µM
- GI50 (SK-MEL-5 melanoma): 1.55 µM
- TGI (SK-MEL-5 melanoma): 2.93 µM
- GI50 (HCT-15 colon): 1.24 µM
- TGI (HCT-15 colon): 2.61 µM
- GI50 (MALME-3M melanoma): 1.67 µM
- TGI (MALME-3M melanoma): 3.22 µM
- GI50 (COLO 205 colon): 1.75 µM
- TGI (COLO 205 colon): 3.23 µM
- GI50 (SNB-19 CNS): 1.66 µM
- TGI (SNB-19 CNS): 3.13 µM
- GI50 (HOP-62 NSCLC): 2.07 µM
- TGI (HOP-62 NSCLC): 3.84 µM
- GI50 (MDA-MB-231 breast): 1.69 µM
- TGI (MDA-MB-231 breast): 3.07 µM
- GI50 (NCI/ADR-RES ovarian): 2.16 µM
- TGI (NCI/ADR-RES ovarian): 4.81 µM
- GI50 (MDA-MB-435): 1.12 µM
- TGI (MDA-MB-435): 2.35 µM
- GI50 (T-47D breast): 1.8 µM
- TGI (T-47D breast): 3.95 µM
- GI50 (NCI-H226 lung): 1.9 µM
- TGI (NCI-H226 lung): 4.82 µM
- GI50 (IGROV1 ovarian): 1.58 µM
- TGI (IGROV1 ovarian): 3.16 µM
